This is an account of results in patent publication US20260315431A1, “NANOMATERIAL ENCAPSULATED BIOFILM INHIBITORS FOR DENTAL CARIES TREATMENT” (THE UAB RESEARCH FOUNDATION, priority 2023, published 2026).

“Also recorded” adds a separate entry of the source.

Data set [1] can be described thus: Body weight of animals, HEBI / HA5 study. The conditions noted are these: for Weight: 100 μM (NaF 250 ppm), 4 weeks. The format is in vivo, Fischer 344 rats. On the procedure:
Rat model of dental caries. In vivo studies of colonization and virulence of S. mutans were evaluated using a previously reported rat model of dental caries^71. Offspring of gnotobiotic Fischer 344 rats used in this experiment were bred and maintained in trexler isolators. Male and female rat pups were removed from isolators at 20 days of age and randomly assigned into 5 treatment groups of 5 rats/group in cages with filter tops. Rats were then infected with S. mutans UA159 strain by oral swabbing daily for four consecutive days with a fresh overnight culture of S. mutans UA159. Rats were provided with caries promoting Teklad Diet 305 containing […] (Harlan Laboratories, Inc., Indianapolis, IN) and sterile drinking water ad libitum. Oral swabs were taken 5 days post-infection and plated on Todd Hewitt (TH) agar plates and incubated at 37° C. in an environment of 5% CO2 in the air to confirm colonization. Rats were weighed at weaning and at the termination of the experiment. One-week post-infection, the molars of the rats were treated topically twice daily for 4 weeks with the test compounds using camel-hair brushes. […] Each sample was serially diluted, plated on blood agar plates (BAP) and mitis-salivarius (MS) agar plates and incubated in an environment of 5% CO2 at 37° C. to quantify the level of total bacteria and S. mutans present in the plaque. […] After drying, the mandibles were sectioned and scored for caries activity using the Keyes method^68. Caries scores were recorded for the buccal, sulcal and proximal molar surfaces individually so that differences among the surfaces can be distinguished. Statistical significance in the mean caries scores, colony-forming units (CFUs)/mandible and body weights between groups of rats were determined by one-way analysis of variance (ANOVA) with the Tukey-Kramer multiple comparison test using the InStat program (Graphpad Software, San Diego, CA). […]

The test system of data set [2] is S. sanguinis SK36. Put plainly: Commensal biofilm inhibition, S. sanguinis SK36 (crystal violet, OD562). In kind it is cell-based, Streptococcus sanguinis. The conditions noted are these: 25 μM. The procedure: The bacterial strains, S. mutans UA159, S. gordonii DL1, and S. sanguinis SK36 were inoculated statically at 37° C. under 5% CO2 in Todd Hewitt Broth (THB) for 24 h. The cultures were then diluted with fresh THB (1:5) and reinoculated until optical density at 470 nm (OD470) reached 1. The optical density was read using BioTek 800TS microplate reader at 470 nm for bacterial growth and 562 nm for biofilm stained with crystal violet. Data was plotted in Graphpad Prism9.
Biofilm inhibition assays. Biofilm inhibition assays were performed in polystyrene microtiter 96 well plates. […] After reading optical density for bacterial growth, the plate was gently washed with water, dried, and stained with crystal violet, and then gently rinsed again with deionized water leaving the stained biofilm at the bottoms of the wells. Biofilms was dissolved in 200 μL of 30% acetic acid and absorbance at 562 nm was used read to determine biofilm biomass. […] Biofilm inhibitory concentration (IC50) of the compounds was determined by serial dilutions.
All bacterial strains (S. mutans UA159, S. gordonii DL1, and S. sanguinis SK36) were inoculated statically at 37° C. under 5% CO2 environment in Todd Hewitt Broth (THB) for 24 h^[61]. […] The optical density was read using BioTek 800 TS absorbance reader at 470 nm for bacterial growth and 562 nm for biofilm stained with crystal violet. […]

Compound `O=C1/C(=C/c2cc(O)c(O)cc2O)Oc2ccccc21` [HA5, 2-[(2′,4′,5′-Trihydroxyphenyl)methylidene]-2,3-dihydro-1-benzofuran-3-one] yielded a Weight in data set [1] of 137 ± 13 g. Moreover, the “weight loss” value in data set [1] (4-week treatment, 100 μM) was “did not experience any weight loss”. Besides, the “S. sanguinis biofilm” value in data set [2] is reported as “did not significantly reduce; also recorded: minimal”.

With `O=C1/C(=C/c2cc(O)c(O)c(O)c2)Oc2ccccc21` [HA6, 2-[(3′,4′,5′-Trihydroxyphenyl)methylidene]-2,3-dihydro-1-benzofuran-3-one], the “S. sanguinis biofilm” value in data set [2] was “did not significantly reduce the biofilms”.

Turning to `[F-].[Na+]` [NaF, reference compound], in data set [1], the Weight stood at 161 ± 13 g.
